In patent US6511967B1, “Use of an internalizing transferrin receptor to image transgene expression” (The General Hospital Corporation, priority 1999, dated 2003):

Assays:
[1] = system: Gli36EGFR cells
Procedure: Gli36EGFR cells were plated at approximately 10% confluency. Cells were infected the next day (MOI=5) with either one of three amplicons: EZ-TFR (FIG. 12), which was a control having a transferrin receptor gene, but lacking a p450 gene; EZ-p450 (FIG. 11), which was a second control with a p450 gene but no transferrin receptor gene; or PETZ (FIG. 8), which includes both the p450 and transferrin receptor genes. Following a 24 hour incubation with the viral amplicons, cyclophosphamide (CPA) was added in varying concentrations as indicated in the graph of FIG. 13. CPA is a chemotherapeutic compound that is metabolized by the expression product of the p450 gene (cyp2B1 in the rat). Cleavage of CPA yields an active metabolite, which is toxic to the cancer cells. Cell number was measured 72 hours later using a Coulter Counter. The data are presented in the graph in FIG. 13 as a percentage of control, where control cells are virally infected cells in the absence of CPA.

[2] = system: Gli36EGFR cells; test: In vitro MR imaging of Gli36EGFR cells infected with PETZ amplicon and labeled with Tf-SPDP-CLIO (FIG. 10B); format: cell-based; conditions: MOI 20 or 4; 2 hours at 37° C.; especially at MOI of 20
Procedure: In another similar experiment, in vitro MR imaging was used to analyze viral transfer of the transferrin receptor and labeling with Tf-SPDP-CLIO. Gli36EGFR cells were uninfected or infected with an HSV-based amplicon (PETZ) driving expression of an altered form of the transferrin receptor (Multiplicity of Infection (MOI) of 20 or 4). After 24 hours, the cells were incubated with the indicated concentrations of Tf-SPDP-CLIO for 2 hours at 37° C. Following incubation, cells were harvested, washed, and pelleted for imaging at room temperature. As a control for non-specific uptake of unconjugated CLIO, infected and uninfected cells were also incubated in a similar fashion with 50 μg of CLIO alone. Concentration numbers along the top of the figure refer to the amount of iron added to the sample in the form of Tf-SPDP-CLIO. The ratio of Tf conjugated to CLIO for Tf-SPDP-CLIO was 4:1. […] The MR imaging conditions were as follows: SE (Spin Echo); TR 3000 ms, multiecho with TE 25, 50, 75, 100 ms. Slice thickness 1.9 mm, field of view 8 cm, matrix 256×256, 2 NEX, scan time 26:12 minutes.

[3] = system: Gli36EGFR tumors infected with PETZ; test: In vivo MR imaging of gene transfer in bilateral Gli36EGFR brain tumors (FIG. 9); set-up: species or system nude mice; conditions: 24 hours after tail-vein injection, 1 mg/kg; 3-D gradient echo
Source text: In another example of imaging of in vivo gene transfer, Gli36EGFR cells were implanted into nude mice 8 days prior to imaging to generate bilateral frontal tumors. On day 6 after implantation, tumors on the right were infected with the HSV-based amplicon PETZ (FIG. 8), which drives expression of an altered form of the TfR. Forty-eight hours after virus administration animals were imaged without contrast agent (T1-weighted pre-contrast scan; FIG. 9A) and then injected with Tf-SPDP-CLIO.
All contrast agents were injected by tail-vein administration (1 mg/kg Tf-SPDP-CLIO). Scans: (9A) T1 SE 300/16, FOV 8 cm, 256×256, 1.9 thk/0.2 spc; (9B) T1 SE [Omniscan], and (9C) T2 3D GR 38/20/5°, FOV 10 cm, 256×256, 0.5 thk/0.0 spc. [Tf-SPDP-CLIO.

[4] = system: ETR+ and ETR− tumors; test: Biodistribution of labeled reporter complex in excised ETR+ and ETR− tumors; format: in vivo, nude mice
Procedure: A similar 4-fold difference was also observed when In labeled Tf was injected into these animals. The same assay can be used to analyze the biodistribution of other new reporter complexes.
First, rat 9L gliosarcoma cells (Brain Tumor Research Center, San Francisco, Calif.) were grown in Dulbecco's modified Eagle's medium (DMEM, Cellgro, Mediatech, Washington, D.C.) containing 10% fetal bovine serum (FBS, Cellgro).
Then, ETR− and ETR+ tumors were grown in nude mice by injecting […] cells of either cell line into the left and right flanks of animals (n=12). Each animal was implanted with both tumors in each flank so that it could serve as its own control. Animals were used for histology, MR, and/or biodistribution studies 10 to 14 days after tumor inoculation. The growth characteristics of the tumors were similar and by day 12 all animals had developed tumors 200-400 mg in size.

[5] = system: ETR+ and ETR− tumors; test: In vivo MR imaging of mice with ETR+ and ETR− tumors after intravenous Tf-MION; set-up: species or system nude mice; conditions: then tumoral signal intensity returned to baseline
Procedure: MR imaging was performed in live animals using a 1.5 T superconducting magnet (Signa 5.0; GE Medical Systems, Milwaukee, Wis.) using a 5-inch surface coil. […] Slice thickness was 3 mm. The field of view (FOV) was 10 cm^2, using a 256×256 imaging matrix and 2-4 acquisition averages. Signal intensity (SI) measurements were obtained in regions of interest (ROI) from tumor and background. To display MION-Tf induced changes, R2 maps of tumors calculated from spin echo images were superimposed on anatomic maps (T1 weighted images). Semiquantitation was done by calibrating R2 maps to known concentrations of radiolabeled superparagmagnetic probes.

[6] = system: Gli36#6; test: In vitro MR imaging of Gli36#6 cells infected with PETZ amplicon and incubated with Tf-MION (FIG. 10A); format: cell-based; conditions: 10 μg Tf-MION
Procedure: In this figure, concentration labels refer to the amount of iron molecules added to the sample. […] Following infection, the cells were allowed to recover and were washed, pelleted, and imaged at room temperature as follows: SE (Spin Echo): TR 3000 ms, multiecho with TE 25, 50, 75, 100ms. Slice thickness 1.9 mm, field of view 8 cm, matrix 256×256, 2 NEX, scan time 26:12 minutes.

[7] = system: 9L3.9 cells; test: In vitro MR imaging of 9L3.9 cell pellets incubated with reporter complexes (FIG. 7); format: cell-based, rat; conditions: spin echo MR imaging
Procedure: Concentration labels in FIG. 7 refer to the amount of iron (reporter complex) added to the sample.
Incubations of the reporter complexes with the cells were carried out at 37° C. The cells were washed and pelleted, and pellets were imaged in microfuge test tubes at room temperature as follows: SE (Spin Echo): TR 3000 ms, multi-echo with TE 25, 50, 75, 100 ms. Slice thickness was 1.9 mm, field of view 8 cm, matrix 256×256, 2 NEX, scan time 26:12 minutes. As shown at the top row in the figure, the Tf-SPDP-CLIO contrast agent provided a change in measured signal at far lower concentrations of the reporter complex.

`O=P1(N(CCCl)CCCl)NCCCO1` (stereo not drawn) [CPA, cyclophosphamide] was tested, and the “cells alive, percent of control, no amplicon” value ([1]; 10^3 μM CPA, 72 hours) was “about 80%”, the “cells alive, percent of control, EZ-TFR amplicon” value ([1]; 10^3 μM CPA, 72 hours, MOI=5) was “about 80%” and the “cells alive, percent of control, PETZ amplicon” value ([1]; 10^3 μM CPA, 72 hours, MOI=5) was “less than 10%”. The “CPA concentration from which cell killing is significantly increased” value ([1]; PETZ and EZ-p450 amplicons) was 10^1 μM.
“Tf-SPDP-CLIO: holo-Tf conjugated to CLIO using the crosslinking agent N-succinimidyl 3-(2-pyridyldithio) propionate (SPDP)” was tested, and the “change in MRI following infection with amplicons expressing the altered transferrin receptor” value [2] was “dramatic change in MRI at lower concentrations of iron” and the “appearance of PETZ-infected tumor in MR image” value [3] was “dark mass”.
In the case of “Tf-MION: human holo-transferrin covalently conjugated to dextran coated monocrystalline iron oxide nanoparticles by the periodate method”, the “mean accumulation in ETR+ tumors” value ([4]; 24 hours after IV administration) is reported as 3.2 % ID/g, the “mean accumulation in ETR− tumors” value ([4]; 24 hours after IV administration, same animal) is reported as 0.8 % ID/g and the “persistence of MR signal intensity differences of tumors” value [5] is reported as “approximately 7 days”. For the same compound, the “change of MR signal of cell pellet due to TfR expression after PETZ infection” value [6] was “dramatically altered the MR signal”.
In the case of “In labeled Tf: transferrin labeled with In (radioisotope) [reference compound]”, the “difference in tumor accumulation, ETR+ vs ETR− tumors” value ([4]; ETR+ vs ETR− tumors) is reported as about 4 fold.
For “Tf-CLIO: holo-Tf conjugated to cross-linked iron oxide nanoparticles (CLIO) using the periodate method”, the “contrast compared with the other reporter complexes” value [7] was “better than the Tf-MION, but not as good as the Tf-SPDP-CLIO”.
